Reference: PubChem BioAssay (NCI)
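A five-concentration, 48-hour dose response in 96-well plates underlies each endpoint, interpolated linearly between surrounding concentrations. At the GI50, growth is halved. Definition used: TGI = concentration required for complete inhibition of growth.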

Assays:
Test in all cases: NCI-60 cell line screen, 48 h
[1] = system: SF-539 CNS
[2] = system: CAKI-1 renal
[3] = system: ACHN renal
[4] = system: K-562 leukemia
[5] = system: HCT-15 colon
[6] = system: SNB-19 CNS
[7] = system: SK-MEL-2 melanoma
[8] = system: DU-145 prostate
[9] = system: MALME-3M melanoma
[10] = system: MCF7 breast

SMILES	TGI [1] [µM]	TGI [2] [µM]	TGI [3] [µM]	TGI [4] [µM]	TGI [5] [µM]	TGI [6] [µM]	TGI [7] [µM]	TGI [8] [µM]	TGI [9] [µM]	TGI [10] [µM]	GI50 [1] [µM]	GI50 [2] [µM]	GI50 [3] [µM]	GI50 [4] [µM]	GI50 [5] [µM]	GI50 [6] [µM]	GI50 [7] [µM]	GI50 [8] [µM]	GI50 [9] [µM]	GI50 [10] [µM]
COc1c(OC)c(OC)c(C(=O)/C=C/c2ccccc2)c(OC)c1OC	30.9	28.4	28.9	55.5	23	25.1	45	12	30.1	24.1	–	–	–	–	–	–	–	–	–	–
O=c1[nH]c(=O)n(C2CC(O)C(CO)O2)cc1CO (centres undefined)	> 100	> 100	> 100	> 100	> 100	> 100	> 100	> 100	> 100	> 100	21.1	> 100	> 100	> 100	> 100	2.9	> 100	> 100	> 100	> 100
Cc1ccc(Cl)cc1Nc1nc(C(F)(F)F)ccc1C(=O)N1CCN(c2cccc(Cl)c2)CC1	> 100	> 100	> 100	> 100	> 100	> 100	> 100	> 100	> 100	> 100	> 100	26.4	> 100	> 100	> 100	> 100	> 100	> 100	> 100	47.9
Cc1ccc(-c2nc3ccc([N+](=O)[O-])cc3[nH]2)cc1	> 100	> 100	> 100	> 100	> 100	> 100	> 100	> 100	> 100	> 100	–	–	–	–	–	–	–	–	–	–
Cc1ccc(/C=C/c2c(C(=O)/C=C/c3ccc(C(F)(F)F)cc3)c(C)nc3ccccc23)cc1	3.26	2.32	2.7	> 100	3.49	2.88	3.92	2.9	3.08	2.3	1.79	1.11	1.4	1.55	0.89	1.55	1.83	1.56	1.7	0.557
COC1C(O)=C2C(=O)O/C(C)=C/C=C/C=C/C=C\CC(c3ccccc3)NC(=O)\C=C/C=C\C=C\C=C\[C@@]2(C)[C@@H]1O (some centres undefined)	0.047	0.0582	0.122	0.158	0.0834	0.141	0.15	0.178	0.329	0.0175	–	–	–	–	–	–	–	–	–	–
Cc1nc2cnc(N)c(C#Cc3cncc(C(=O)Nc4ccc(CN5CCN(C)CC5)c(C(F)(F)F)c4)c3)c2nc1C	3.69	1.54	5.9	8.18	10.9	16.9	0.817	11.2	0.163	4.04	0.313	0.31	0.564	–	0.912	4.36	0.187	0.409	0.0339	0.161
